This note sets out measurements from patent publication US11053213B2, “Pharmaceutical compounds” (ALMAC DISCOVERY LIMITED, priority 2016, dated 2021).

This test deals with USP19 (Homo sapiens (Human), UniProt O94966). Nature of the test: USP19 activity assay (fluorescence polarisation, Ubiquitin-Lys-TAMRA substrate). Format: biochemical. The conditions noted are these: full-length USP19 2.5 nM, 30 min pre-incubation, Ub substrate 500 nM; average of at least two duplicate experiments. (In general: In fluorescence polarisation assays a small probe gives low polarisation when free and higher when bound to something large.)
Chain of USP19 (O94966 whole entry): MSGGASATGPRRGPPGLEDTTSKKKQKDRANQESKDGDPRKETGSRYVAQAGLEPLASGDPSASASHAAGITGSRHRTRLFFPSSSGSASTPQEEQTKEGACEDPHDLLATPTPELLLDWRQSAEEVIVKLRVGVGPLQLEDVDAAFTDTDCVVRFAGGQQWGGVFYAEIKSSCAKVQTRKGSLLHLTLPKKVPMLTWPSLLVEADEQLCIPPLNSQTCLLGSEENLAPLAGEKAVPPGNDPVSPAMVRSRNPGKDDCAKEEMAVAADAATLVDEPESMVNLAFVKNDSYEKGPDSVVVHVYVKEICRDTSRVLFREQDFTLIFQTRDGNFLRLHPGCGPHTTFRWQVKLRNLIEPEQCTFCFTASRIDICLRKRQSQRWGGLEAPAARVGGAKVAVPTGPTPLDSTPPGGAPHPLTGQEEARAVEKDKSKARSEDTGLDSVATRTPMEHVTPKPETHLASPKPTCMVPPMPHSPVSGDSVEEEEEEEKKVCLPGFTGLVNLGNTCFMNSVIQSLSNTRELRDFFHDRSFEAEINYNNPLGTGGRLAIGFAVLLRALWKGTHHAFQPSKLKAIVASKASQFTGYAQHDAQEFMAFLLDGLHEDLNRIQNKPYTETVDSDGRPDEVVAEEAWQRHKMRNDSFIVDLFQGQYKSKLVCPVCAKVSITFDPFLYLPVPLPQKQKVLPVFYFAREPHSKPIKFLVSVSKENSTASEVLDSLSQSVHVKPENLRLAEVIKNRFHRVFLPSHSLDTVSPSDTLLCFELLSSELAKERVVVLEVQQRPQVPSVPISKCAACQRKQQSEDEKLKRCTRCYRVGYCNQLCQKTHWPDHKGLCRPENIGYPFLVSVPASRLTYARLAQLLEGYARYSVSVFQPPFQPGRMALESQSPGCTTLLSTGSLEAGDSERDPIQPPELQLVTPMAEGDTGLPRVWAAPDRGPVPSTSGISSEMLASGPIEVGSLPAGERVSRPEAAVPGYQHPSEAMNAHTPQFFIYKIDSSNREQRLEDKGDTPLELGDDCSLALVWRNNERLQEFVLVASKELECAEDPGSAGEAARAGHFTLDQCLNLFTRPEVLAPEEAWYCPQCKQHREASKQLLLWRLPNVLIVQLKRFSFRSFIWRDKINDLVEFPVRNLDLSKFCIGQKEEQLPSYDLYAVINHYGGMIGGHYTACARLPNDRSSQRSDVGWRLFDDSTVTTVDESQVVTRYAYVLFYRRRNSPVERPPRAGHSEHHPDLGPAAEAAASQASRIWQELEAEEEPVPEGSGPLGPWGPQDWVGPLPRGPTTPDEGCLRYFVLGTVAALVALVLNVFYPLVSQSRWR

Where only a bound is given, the exact number is not on record here.

In the case of `C[C@H](CC1CCCCC1)C(=O)N1CCC(O)(Cn2cnccc2=O)C2(CCCC2)C1` (stereo partly drawn) [Example 134, 3-((7-((R)-3-Cyclohexyl-2-methylpropanoyl)-10-hydroxy-7-azaspiro[4.5]decan-10-yl)methyl)pyrimidin-4(3H)-one], the IC50 fell in the range of 5 to 50 µM.
On to `Cc1cn(CC2(O)CCN(C(=O)C[C@@H](C)c3ccccc3)CC2)c(=O)cc1-c1ccccc1` [Example 111, (R)-1-((4-Hydroxy-1-(3-phenylbutanoyl)piperidin-4-yl)methyl)-5-methyl-4-phenylpyridin-2(1H)-one], for which the IC50 fell in the range of 50 to 250 µM.
With `CCC1(C(=O)N2CCC(O)(Cn3cnc(-c4ccccc4F)cc3=O)CC2)CCCCC1` [Example 24, 3-((1-(1-Ethylcyclohexane-1-carbonyl)-4-hydroxypiperidin-4-yl)methyl)-6-(2-fluorophenyl)pyrimidin-4(3H)-one], the IC50 is 5 to 50 µM.
To `CC(C)N(C)C(=O)c1cn(CC2(O)CCN(C(=O)C[C@@H](C)c3ccccc3)CC2)c(=O)cc1-c1ccccc1F` [Example 90, (R)-4-(2-Fluorophenyl)-1-((4-hydroxy-1-(3-phenylbutanoyl)piperidin-4-yl)methyl)-N-isopropyl-N-methyl-6-oxo-1,6-dihydropyridine-3-carboxamide] belongs 0.5 to 5 µM.
Next, `CN(C)C(=O)c1cn(CC2(O)CCN(C(=O)c3nc(C(F)(F)F)cs3)CC23CCCC3)c(=O)cc1-c1ccccc1` (stereo not shown) [Example 245, 1-((10-Hydroxy-7-(4-(trifluoromethyl)thiazole-2-carbonyl)-7-azaspiro[4.5]decan-10-yl)methyl)-N,N-dimethyl-6-oxo-4-phenyl-1,6-dihydropyridine-3-carboxamide]: 5 to 50 µM.
`C[C@H](CC1CCCCC1)C(=O)N1CC[C@@](O)(Cn2cc(C(=O)N3CCC(O)CC3)c(-c3ccccc3)cc2=O)C(C)(C)C1` [Example 228, 1-(((S)-1-((R)-3-Cyclohexyl-2-methylpropanoyl)-4-hydroxy-3,3-dimethylpiperidin-4-yl)methyl)-5-(4-hydroxypiperidine-1-carbonyl)-4-phenylpyridin-2(1H)-one]: the IC50 was less than 0.5 µM.
Take `C[C@H](CC1CCCCC1)C(=O)N1CCC(O)(Cn2cnc(-c3ccccc3CN)cc2=O)C(C)(C)C1` (stereo partly drawn) [Example 141, 6-(2-(Aminomethyl)phenyl)-3-((1-((R)-3-cyclohexyl-2-methylpropanoyl)-4-hydroxy-3,3-dimethylpiperidin-4-yl)methyl)pyrimidin-4(3H)-one]: the IC50 is less than 0.5 µM.
Regarding `CN(C)C(=O)c1cn(CC2(O)CCN(C(=O)C3(C)CCCC3)CC23CCCC3)c(=O)cc1-c1ccccc1` (stereo not shown) [Example 186, 1-((10-Hydroxy-7-(1-methylcyclopentane-1-carbonyl)-7-azaspiro[4.5]decan-10-yl)methyl)-N,N-dimethyl-6-oxo-4-phenyl-1,6-dihydropyridine-3-carboxamide], the IC50 lay within 50 to 250 µM.
`C[C@H](CC(=O)N1CCC(O)(Cn2cnc(-c3cccc4ccccc34)cc2=O)CC1)c1ccccc1` [Example 20, (R)-3-((4-Hydroxy-1-(3-phenylbutanoyl)piperidin-4-yl)methyl)-6-(naphthalen-1-yl)pyrimidin-4(3H)-one]: the IC50 lay within 5 to 50 µM.
Turning to `C[C@H](CC(=O)N1CCC(O)(Cn2cc(-c3ccccc3C#N)c(-c3ccccc3)cc2=O)CC1)c1ccccc1` [Example 106, (R)-2-(1-((4-Hydroxy-1-(3-phenylbutanoyl)piperidin-4-yl)methyl)-6-oxo-4-phenyl-1,6-dihydropyridin-3-yl)benzonitrile], the IC50 was 5 to 50 µM.
To `CCCCC(CC)C(=O)N1CCC(O)(Cn2cc(C(=O)N(C)C(C)C)c(-c3ccccc3)cc2=O)CC1` (racemic) [Example 80, (R,S)-1-((1-(2-Ethylhexanoyl)-4-hydroxypiperidin-4-yl)methyl)-N-isopropyl-N-methyl-6-oxo-4-phenyl-1,6-dihydropyridine-3-carboxamide] belongs 5 to 50 µM; to `CN(C)C(=O)c1cn(CC2(O)CCN(C(=O)c3c[nH]nc3C3CCCCC3)CC23CCCC3)c(=O)cc1-c1ccccc1` (stereo not shown) [Example 189, 1-((7-(3-Cyclohexyl-1H-pyrazole-4-carbonyl)-10-hydroxy-7-azaspiro[4.5]decan-10-yl)methyl)-N,N-dimethyl-6-oxo-4-phenyl-1,6-dihydropyridine-3-carboxamide], 0.5 to 5 µM.
With `CN(C)C(=O)c1cn(CC2(O)CCN(C(=O)C3CCC(F)(F)C3)CC23CCCC3)c(=O)cc1-c1ccccc1` (stereo not shown) [Example 202, 1-((7-(3,3-Difluorocyclopentane-1-carbonyl)-10-hydroxy-7-azaspiro[4.5]decan-10-yl)methyl)-N,N-dimethyl-6-oxo-4-phenyl-1,6-dihydropyridine-3-carboxamide], the IC50 was in the range of 50 to 250 µM.
With `Cc1ccc(-c2cc(=O)n(CC3(O)CCN(C(=O)C[C@@H](C)c4ccccc4)CC3)cc2C(=O)N(C)C(C)C)cc1` [Example 96, (R)-1-((4-Hydroxy-1-(3-phenylbutanoyl)piperidin-4-yl)methyl)-N-isopropyl-N-methyl-6-oxo-4-(p-tolyl)-1,6-dihydropyridine-3-carboxamide], the IC50 lay within 5 to 50 µM.
On to `CCC(CC1CCCCC1)C(=O)N1CCC(O)(Cn2cnc(-c3ccccc3F)cc2=O)CC1` (stereo not shown) [Example 40, 3-((1-(2-(Cyclohexylmethyl)butanoyl)-4-hydroxypiperidin-4-yl)methyl)-6-(2-fluorophenyl)pyrimidin-4(3H)-one], for which the IC50 lay in the range of 5 to 50 µM.
To `CC(CN1CCCCC1)C(=O)N1CCC(O)(Cn2cc(C(=O)N(C)C)c(-c3ccccc3)cc2=O)C2(CCCC2)C1` (stereo not shown) [Example 158, 1-((10-Hydroxy-7-(2-methyl-3-(piperidin-1-yl)propanoyl)-7-azaspiro[4.5]decan-10-yl)methyl)-N,N-dimethyl-6-oxo-4-phenyl-1,6-dihydropyridine-3-carboxamide] belongs 50 to 250 µM; to `CC(C)N(C)C(=O)c1cn(C[C@]2(O)CCN(C(=O)[C@H](C)CC3CCCCC3)CC2(C)C)c(=O)cc1-c1ccccc1` [Example 120, 1-(((S)-1-((R)-3-Cyclohexyl-2-methylpropanoyl)-4-hydroxy-3,3-dimethylpiperidin-4-yl)methyl)-N-isopropyl-N-methyl-6-oxo-4-phenyl-1,6-dihydropyridine-3-carboxamide], less than 0.5 µM; to `CC(=O)Nc1cccc(-c2cn(CC3(O)CCN(C(=O)C[C@@H](C)c4ccccc4)CC3)c(=O)cc2-c2ccccc2)c1` [Example 6, (R)—N-(3-(1-((4-Hydroxy-1-(3-phenylbutanoyl)piperidin-4-yl)methyl)-6-oxo-4-phenyl-1,6-dihydropyridin-3-yl)phenyl)acetamide], 5 to 50 µM.
To `C[C@H](CC1CCC1)C(=O)N1CC[C@@](O)(Cn2cc(C(=O)N3CCNCC3)c(-c3ccccc3)cc2=O)C2(CCCC2)C1` [Example 215, 1-(((S)-7-((R)-3-Cyclobutyl-2-methylpropanoyl)-10-hydroxy-7-azaspiro[4.5]decan-10-yl)methyl)-4-phenyl-5-(piperazine-1-carbonyl)pyridin-2(1H)-one] belongs less than 0.5 µM; to `O=C(C(O)CC1CCCCC1)N1CCC(O)(Cn2cnc(-c3ccccc3F)cc2=O)CC1` (racemic) [Example 44, (R,S)-3-((1-(3-Cyclohexyl-2-hydroxypropanoyl)-4-hydroxypiperidin-4-yl)methyl)-6-(2-fluorophenyl)pyrimidin-4(3H)-one], 5 to 50 µM; to `C[C@H](CC(=O)N1CCC(O)(Cn2cc(C(=O)N3CCC[C@@H]3C)c(-c3ccccc3)cc2=O)CC1)c1ccccc1` [Example 116, 1-((4-Hydroxy-1-((R)-3-phenylbutanoyl)piperidin-4-yl)methyl)-5-((S)-2-methylpyrrolidine-1-carbonyl)-4-phenylpyridin-2(1H)-one], 0.5 to 5 µM.
For the compound `COC[C@H](CC1CCCCC1)C(=O)N1CC[C@@](O)(Cn2cc(C(=O)N(C)C)c(-c3ccccc3)cc2=O)C(C)(C)C1` [Example 160, 1-(((S)-1-((S)-3-Cyclohexyl-2-(methoxymethyl)propanoyl)-4-hydroxy-3,3-dimethylpiperidin-4-yl)methyl)-N,N-dimethyl-6-oxo-4-phenyl-1,6-dihydropyridine-3-carboxamide], the IC50 was less than 0.5 µM.
For `Cc1nc(-c2ccccc2)cc(=O)n1CC1(O)CCN(C(=O)CCc2ccccc2)CC1` [Example 34, 3-((4-Hydroxy-1-(3-phenylpropanoyl)piperidin-4-yl)methyl)-2-methyl-6-phenylpyrimidin-4(3H)-one], the IC50 lay within 50 to 250 µM.
With `CC1(C)CN(C(=O)CCc2ccccc2)CCC1(O)Cn1cnc(-c2ccccc2F)cc1=O` (racemic) [Example 68, (R,S)-6-(2-Fluorophenyl)-3-((4-hydroxy-3,3-dimethyl-1-(3-phenylpropanoyl)piperidin-4-yl)methyl)pyrimidin-4(3H)-one], the IC50 fell in the range of 5 to 50 µM.
To `CC1(C)CN(C(=O)CCC2CC2)CCC1(O)Cn1cnc(-c2ccccc2F)cc1=O` (racemic) [Example 83, (R,S)-3-((1-(3-Cyclopropylpropanoyl)-4-hydroxy-3,3-dimethylpiperidin-4-yl)methyl)-6-(2-fluorophenyl)pyrimidin-4(3H)-one] belongs 50 to 250 µM; to `CC1(C)CN(C(=O)c2c[nH]nc2C2CCCCC2)CCC1(O)Cn1cnc(-c2ccccc2F)cc1=O` (racemic) [Example 67, (R,S)-3-((1-(3-Cyclohexyl-1H-pyrazole-4-carbonyl)-4-hydroxy-3,3-dimethylpiperidin-4-yl)methyl)-6-(2-fluorophenyl)pyrimidin-4(3H)-one], 5 to 50 µM.
Regarding `C[C@H](CC1CCCCC1)C(=O)N1CC[C@@](O)(Cn2cc(C(=O)N(C)C)c(C3CC3)cc2=O)C(C)(C)C1` [Example 220, 1-(((S)-1-((R)-3-Cyclohexyl-2-methylpropanoyl)-4-hydroxy-3,3-dimethylpiperidin-4-yl)methyl)-4-cyclopropyl-N,N-dimethyl-6-oxo-1,6-dihydropyridine-3-carboxamide], the IC50 fell in the range of 0.5 to 5 µM.
Regarding `C[C@H](CC1CCCCC1)C(=O)N1CC[C@@](O)(Cn2cc(C(=O)O)c(-c3ccccc3)cc2=O)C2(CCCC2)C1` [Example 253, 1-(((S)-7-((R)-3-Cyclohexyl-2-methylpropanoyl)-10-hydroxy-7-azaspiro[4.5]decan-10-yl)methyl)-6-oxo-4-phenyl-1,6-dihydropyridine-3-carboxylic acid], the IC50 was less than 0.5 µM.

What is called IC50 is the concentration that gives 50% inhibition.
